The target of one experiment is EGFR L858R (Homo sapiens (Human), UniProt P00533, L858R). Put plainly: HTRF-based EGFR biochemical assay, L858R. The note with it: L858R 0.1 nM enzyme, 100 μM ATP; read-out: LR enzyme IC50. On the procedure:
(§1) EGFR biochemical activity measurements were carried out using the homogeneous time-resolved fluorescence (HTRF) assay (Cisbio). Inhibitors and DMSO normalizations were first dispensed to empty black low-volume 384-well plates (Corning) with D300 digital liquid dispenser (HP). All reactions were carried out at room temperature and solutions were added to plates with a Multidrop Combi Reagent Dispenser (ThermoFisher). The reaction mixture (10 µL final volume) contained 1 μM tyrosine kinase peptide-biotin substrate and mutant EGFR in a reaction buffer (50 mM HEPES pH 7.0, 5 mM MgCl2, 1 mM MnCl2, 0.01% BSA, 2 mM TCEP, 0.1 mM NaVO4). Enzyme concentrations were adjusted to accommodate varying kinase activities (L858R 0.1 nM, L858R/T790M 0.02 nM). Enzyme reaction solution (2× concentrations, 5 μL) was added to 384-well plates containing compounds and incubated for 30 mins. Enzyme reactions were initiated with the addition of 5 μL of ATP to a final concentration of 100 μM and reacted for 20 mins. Reactions were quenched with the addition of 10 μL of phospho-tyrosine antibody-Europium (III) cryptate (1-to-180 volume ratio) and Streptavidin-XL665 (46.7 nM) in EDTA-containing detection buffer, then incubated at room temperature for 1 hour, and read with a PHERAstar plate reader (excitation=337 nm, emission=620 nm and 665 nm). IC50 values were determined by inhibition curves (11-point curves from 1.0 μM to 0.130 nM or 23-point curves from 1.0 μM to 0.130 μM) in triplicate with non-linear least squares fit in GraphPad Prism 7.0d.

Experiment [1] concerns EGFR mutant L858R Ba/F3 cells. Nature of the experiment: Ba/F3 cell proliferation (Cell Titer Glo), L858R. It counts as cell-based, murine. The note with it: Mus musculus, BaF3, 72 hours, read-out: LR BaF3 cell IC50. From the text:
(§2) The EGFR mutant L858R and L858R/T790M Ba/F3 cells have been previously described (Zhou, W., et al. Nature 462, 2009, 1070-1074). All cell lines were maintained in RPMI 1640 (Cellgro; Mediatech Inc., Herndon, CA) supplemented with 10% FBS, 100 units/mL penicillin, 100 units/mL streptomycin. The EGFR 1941R mutation was introduced via site directed mutagenesis using the Quick Change Site-Directed Mutagenesis kit (Stratagene; La Jolla, CA) according to the manufacturer's instructions. All constructs were confirmed by DNA sequencing. The constructs were shuttled into the retroviral vector JP1540 using the Cre-recombination system (Agilent Technologies, Santa Clara, CA). Ba/F3 cells were then infected with retrovirus per standard protocols, as described previously (Zhou, et al, Nature 2009). Stable clones were obtained by selection in puromycin (2 μg/ml).
(§3) Growth and inhibition of growth was assessed by the Cell Titer Glo assay (Promega, Madison, WI) and was performed according to the manufacturer's instructions. The Cell Titer Glo assay is a luminescence-based method used to determine the number of viable cells based on quantitation of the ATP present, which is directly proportional to the amount of metabolically active cells present. Ba/F3 cells of different EGFR genotypes were exposed to the compounds disclosed herein for 72 hours and the number of cells used per experiment was determined empirically as has been previously established (Zhou, et al., Nature 2009). All experimental points were set up in triplicates in 384-well plates and all experiments were repeated at least three times. […] The curves were fitted using a non-linear regression model with a sigmoidal dose response.

The test system of experiment [2] is EGFR mutant L858R/T790M Ba/F3 cells. Put plainly: Ba/F3 cell proliferation (Cell Titer Glo), L858R/T790M. It is filed as cell-based, murine. The note with it: Mus musculus, BaF3, 72 hours, read-out: LRTM BaF3 cell IC50.
Text: as §2, §3

In another experiment the target is EGFR L858R/T790M (Homo sapiens (Human), UniProt P00533, L858R/T790M). Put plainly: HTRF-based EGFR biochemical assay, L858R/T790M. The note with it: L858R/T790M 0.02 nM enzyme, 100 μM ATP; read-out: LRTM enzyme IC50. The protocol:
as §1
In general terms: In TR-FRET formats the signal depends on donor and acceptor labels being close together.

Seven compounds from US20250388573A1, “FUSED BICYCLIC EGFR INHIBITORS AND METHODS OF USE THEREOF” (Dana-Farber Cancer Institute, Inc., priority 2022, published 2025) can be followed below.

Bounds are passed on as bounds.

EGFR L858R/T790M, sequence (P00533 25-1210 T790M/L858R): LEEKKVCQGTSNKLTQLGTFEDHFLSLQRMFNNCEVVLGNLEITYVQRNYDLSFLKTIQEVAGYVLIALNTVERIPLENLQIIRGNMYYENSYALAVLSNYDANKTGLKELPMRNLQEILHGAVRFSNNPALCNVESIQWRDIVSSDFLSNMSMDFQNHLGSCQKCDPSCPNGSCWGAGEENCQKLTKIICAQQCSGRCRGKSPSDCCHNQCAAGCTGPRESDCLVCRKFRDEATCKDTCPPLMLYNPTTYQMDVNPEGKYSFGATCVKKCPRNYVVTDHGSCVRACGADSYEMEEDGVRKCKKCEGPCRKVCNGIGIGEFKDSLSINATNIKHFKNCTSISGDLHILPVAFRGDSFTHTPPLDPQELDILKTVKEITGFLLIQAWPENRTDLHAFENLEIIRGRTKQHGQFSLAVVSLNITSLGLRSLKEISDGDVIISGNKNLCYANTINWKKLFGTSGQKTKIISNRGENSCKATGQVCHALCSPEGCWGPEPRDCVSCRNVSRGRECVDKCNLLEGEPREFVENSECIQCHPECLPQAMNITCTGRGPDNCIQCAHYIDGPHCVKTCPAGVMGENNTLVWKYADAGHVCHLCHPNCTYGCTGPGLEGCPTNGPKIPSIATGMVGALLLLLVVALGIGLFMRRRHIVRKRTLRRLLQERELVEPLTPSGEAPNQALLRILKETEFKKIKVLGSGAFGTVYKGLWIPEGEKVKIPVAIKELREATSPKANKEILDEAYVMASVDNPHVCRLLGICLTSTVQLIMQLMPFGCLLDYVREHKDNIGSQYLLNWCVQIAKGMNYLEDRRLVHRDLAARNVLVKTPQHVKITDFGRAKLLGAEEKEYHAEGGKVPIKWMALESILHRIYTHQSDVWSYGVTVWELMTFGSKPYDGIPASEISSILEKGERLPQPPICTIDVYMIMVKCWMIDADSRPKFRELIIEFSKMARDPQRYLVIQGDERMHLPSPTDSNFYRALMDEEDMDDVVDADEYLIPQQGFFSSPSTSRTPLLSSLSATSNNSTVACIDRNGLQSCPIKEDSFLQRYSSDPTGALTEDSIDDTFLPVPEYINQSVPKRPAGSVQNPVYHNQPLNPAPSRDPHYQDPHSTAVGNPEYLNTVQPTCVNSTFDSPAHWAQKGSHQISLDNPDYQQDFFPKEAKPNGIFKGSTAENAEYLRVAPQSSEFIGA
EGFR L858R, sequence (P00533 25-1210 L858R): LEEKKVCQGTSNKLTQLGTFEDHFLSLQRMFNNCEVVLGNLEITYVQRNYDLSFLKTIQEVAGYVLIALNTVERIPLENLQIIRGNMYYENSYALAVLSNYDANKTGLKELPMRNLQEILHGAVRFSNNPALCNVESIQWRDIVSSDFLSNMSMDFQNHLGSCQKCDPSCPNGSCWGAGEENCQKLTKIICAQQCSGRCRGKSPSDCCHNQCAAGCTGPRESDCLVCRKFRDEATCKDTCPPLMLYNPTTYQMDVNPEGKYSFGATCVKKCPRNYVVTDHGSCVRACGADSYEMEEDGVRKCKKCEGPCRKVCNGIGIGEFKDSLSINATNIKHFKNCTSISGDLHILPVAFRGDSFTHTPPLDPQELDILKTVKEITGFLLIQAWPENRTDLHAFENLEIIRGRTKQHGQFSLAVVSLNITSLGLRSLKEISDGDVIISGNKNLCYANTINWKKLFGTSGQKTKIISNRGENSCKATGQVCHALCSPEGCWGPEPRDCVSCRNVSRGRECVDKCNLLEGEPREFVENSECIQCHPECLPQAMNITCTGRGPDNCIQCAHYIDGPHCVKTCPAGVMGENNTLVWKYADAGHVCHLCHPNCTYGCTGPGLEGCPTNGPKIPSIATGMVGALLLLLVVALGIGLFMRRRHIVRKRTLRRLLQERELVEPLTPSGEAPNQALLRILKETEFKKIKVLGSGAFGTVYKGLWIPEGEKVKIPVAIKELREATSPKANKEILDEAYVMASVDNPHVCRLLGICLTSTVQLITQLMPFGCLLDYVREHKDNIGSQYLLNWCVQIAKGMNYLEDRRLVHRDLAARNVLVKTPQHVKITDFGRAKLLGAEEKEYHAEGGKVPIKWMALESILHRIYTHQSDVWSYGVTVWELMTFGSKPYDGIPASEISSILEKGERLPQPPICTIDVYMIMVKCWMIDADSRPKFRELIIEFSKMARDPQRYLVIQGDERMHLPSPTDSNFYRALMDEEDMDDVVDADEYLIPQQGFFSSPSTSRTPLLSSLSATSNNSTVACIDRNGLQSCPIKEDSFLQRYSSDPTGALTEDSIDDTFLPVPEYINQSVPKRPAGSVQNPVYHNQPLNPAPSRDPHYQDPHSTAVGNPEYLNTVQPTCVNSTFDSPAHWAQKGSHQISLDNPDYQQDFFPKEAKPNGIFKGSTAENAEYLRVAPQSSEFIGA

As to `CN1CCC(c2ccc(-c3ccc4c(c3)C(=O)N(C(c3nc5ccccc5[nH]3)c3cc(F)ccc3O)CO4)cc2)CC1` (stereo not drawn) [Compound 007, 3-((1H-Benzo[d]imidazol-2-yl) (5-fluoro-2-hydroxyphenyl)methyl)-6-(4-(1-methylpiperidin-4-yl)phenyl)-2,3-dihydro-4H-benzo[e][1,3]oxazin-4-one 2,2,2-trifluoroacetate], the IC50 at EGFR L858R was 1.9 nM; in experiment [1], 470 nM; in experiment [2] it was 220 nM; on EGFR L858R/T790M, 0.7 nM.
The corresponding values for `CN1CCC(c2ccc(-c3ccc4c(c3)C(=O)N(C(C(=O)Nc3nccs3)c3cccc(F)c3)CO4)cc2)CC1` (stereo not drawn) [Compound 001, 2-(3-Fluorophenyl)-2-(6-(4-(1-methylpiperidin-4-yl)phenyl)-4-oxo-2H-benzo[e][1,3]oxazin-3 (4H)-yl)-N-(thiazol-2-yl)acetamide] are 2.8 nM, 1480 nM, 510 nM and 0.4 nM.
For `CN1CCC(c2ccc(-c3ccc4c(c3F)C(=O)N(C(C(=O)Nc3nccs3)c3ccccc3)CO4)cc2)CC1` (stereo not drawn) [Compound 005, 2-(5-Fluoro-6-(4-(1-methylpiperidin-4-yl)phenyl)-4-oxo-2H-benzo[e][1,3]oxazin-3(4H)-yl)-2-phenyl-N-(thiazol-2-yl)acetamide] the same measures were 3.7 nM, 1040 nM, 460 nM and 1 nM.
Turning to `CN1CCC(c2ccc(-c3ccc4c(c3)OCN(C(C(=O)Nc3nccs3)c3ccccc3)C4=O)cc2)CC1` (stereo not drawn) [Compound 004, 2-(7-(4-(1-Methylpiperidin-4-yl)phenyl)-4-oxo-2H-benzo[e][1,3]oxazin-3(4H)-yl)-2-phenyl-N-(thiazol-2-yl)acetamide], the IC50 on EGFR L858R was over 100 nM; on EGFR L858R/T790M, 21 nM.
For `CN1CCC(c2ccc(-c3ccc4c(c3)C(=O)N(C(C(=O)Nc3nccs3)c3ccccc3)CO4)cc2)CC1` (stereo not drawn) [Compound 003, 2-(6-(4-(1-Methylpiperidin-4-yl)phenyl)-4-oxo-2H-benzo[e][1,3]oxazin-3(4H)-yl)-2-phenyl-N-(thiazol-2-yl)acetamide], the IC50 was found to be 23 nM on EGFR L858R, 1250 nM in experiment [1], 460 nM in experiment [2] and 0.8 nM at EGFR L858R/T790M.
In the case of `CN1CCC(c2ccc(-c3ccc4c(c3)OCN(C(c3nc5ccccc5[nH]3)c3cc(F)ccc3O)C4=O)cc2)CC1` (stereo not drawn) [Compound 006, 3-((1H-Benzo[d]imidazol-2-yl) (5-fluoro-2-hydroxyphenyl)methyl)-7-(4-(1-methylpiperidin-4-yl)phenyl)-2,3-dihydro-4H-benzo[e][1,3]oxazin-4-one], the IC50 on EGFR L858R worked out at 3.6 nM; in experiment [1], 1540 nM; in experiment [2], 880 nM; at EGFR L858R/T790M, 0.9 nM.
For `CN1CCN(c2ccc(-c3ccc4c(c3)C(=O)N(C(C(=O)Nc3nccs3)c3cccc(F)c3)CO4)cc2)CC1` (stereo not drawn) [Compound 002, 2-(3-Fluorophenyl)-2-(6-(4-(4-methylpiperazin-1-yl)phenyl)-4-oxo-2H-benzo[e][1,3]oxazin-3 (4H)-yl)-N-(thiazol-2-yl)acetamide], the IC50 stood at 23 nM at EGFR L858R and 4 nM on EGFR L858R/T790M.

A word on the IC50: it is the concentration that inhibits the measured activity by half.
